Patent US20120214760A1, “TREATMENT OF URINARY TRACT INFECTIONS WITH ANTIBACTERIAL AMINOGLYCOSIDE COMPOUNDS” (Achaogen, Inc., priority 2009, published 2012)
In brackets after ≈: the same amount, converted by molar mass. Read-outs that look alike come from different tables or passages of the source.

Experiments:
Type in all cases: cell-based
Staphylococcal isolates = test: Susceptibility testing, urinary tract infection isolates
Procedure: (§1) Minimum inhibitory concentrations (MIC) were determined by reference Clinical and Laboratory Standards Institute (CLSI) broth microdilution methods per M7-A7 [2006]. Quality control ranges utilizing E. coli ATCC 25922, P. aeruginosa ATCC 27853 and S. aureus ATCC 29213, and interpretive criteria for comparator agents were as published in CLSI M100-S17 [2007]. Briefly, serial two-fold dilutions of the test compounds were prepared at 2× concentration in Mueller Hinton Broth. The compound dilutions were mixed in 96-well assay plates in a 1:1 ratio with bacterial inoculum. The inoculum was prepared by suspension of a colony from an agar plate that was prepared the previous day. Bacteria were suspended in sterile saline and added to each assay plate to obtain a final concentration of 5×10^5 CFU/mL. The plates were incubated at 35° C. for 20 hours in ambient air.
In order to determine the activity of representative antibacterial aminoglycoside compounds against bacterial species that commonly cause complicated urinary tract infections worldwide, isolates were collected from 47 medical centers in the U.S. and Europe (10 countries) from urine or blood culture with the source of bacteremia documented as a urinary tract infection. Strains were susceptibility tested against Example 1, gentamicin, amikacin and 10 comparators by CLSI broth microdilution. […]

[1] = system: S. aureus ATCC 33591, MRSA; test: MIC of thigh model strain; settings: Staphylococcus aureus
Procedure: as §1

[2] = system: E. coli ATCC 25922 (AECO001); test: MIC, CLSI broth microdilution; settings: Escherichia coli, ATCC25922; Table 5; E. coli Susceptible ATCC 25922
In short: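 MICs were read after 20 hours at 35° C in ambient air, with a final inoculum of 5×10^5 CFU/mL from saline-suspended overnight colonies. Serial two-fold dilutions in Mueller Hinton Broth followed the CLSI reference method (M7-A7), with QC strains E. coli ATCC 25922, P. aeruginosa ATCC 27853 and S. aureus ATCC 29213.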

[3] = system: K. pneumoniae AKPN 1109, KPC; test: MIC of thigh model strain; settings: Klebsiella pneumoniae; Table 5; K. pneumoniae KPC AKPN 1109
Procedure: as §1

E. coli AECO 1003, MDR = test: MIC of thigh model strain; settings: Escherichia coli
Procedure: as §1

[4] = system: K. pneumoniae ATCC 43816, Susceptible; test: MIC of thigh model strain; settings: Klebsiella pneumoniae, ATCC43816; Table 5; K. pneumoniae Susceptible ATCC 43816
Procedure: as §1

[5] = system: K. pneumoniae AKPN 1073, MDR; test: MIC of thigh model strain; settings: Klebsiella pneumoniae; Table 5; K. pneumoniae MDR AKPN 1073
Procedure: as §1

[6] = system: S. marcescens ASMA 1030, KPC; test: MIC of thigh model strain; settings: Serratia marcescens; Table 5; S. marcescens KPC ASMA 1030
Procedure: as §1

Question: Which Staphylococcal susceptibility rate (Staphylococcal isolates) does the source give for O=C1CN(/N=C/c2ccc([N+](=O)[O-])o2)C(=O)N1 [nitrofurantoin] here?
Answer: The Staphylococcal susceptibility rate was 33.3%.

Question: CN[C@H](CC(C)C)C(=O)N[C@H]1C(=O)N[C@@H](CC(N)=O)C(=O)N[C@H]2C(=O)N[C@H]3C(=O)N[C@H](C(=O)N[C@H](C(=O)O)c4cc(O)cc(O)c4-c4cc3ccc4O)[C@H](O)c3ccc(c(Cl)c3)Oc3cc2cc(c3O[C@@H]2O[C@H](CO)[C@@H](O)[C@H](O)[C@H]2O[C@H]2C[C@](C)(N)[C@H](O)[C@H](C)O2)Oc2ccc(cc2Cl)[C@H]1O [VAN, vancomycin] was tested. Which MIC [1] did it give?
Answer: Its MIC is 1 µg/mL.

Question: Which MIC [2] does the source give for C[C@@H](O)[C@H]1C(=O)N2C(C(=O)O)=C(SCCN=CN)C[C@H]12 [IMP, imipenem, reference compound] here?
Answer: The MIC was 0.125 µg/mL (≈ 0.418 µM).

Question: And the MIC [3]?
Answer: The MIC was 32 µg/mL.

Question: What about the MIC (E. coli AECO 1003, MDR) of the same compound?
Answer: The MIC was 0.125 µg/mL.

Question: What about the MIC [4] of the same compound?
Answer: Its MIC is 0.5 µg/mL.

Question: What about the MIC [5] of the same compound?
Answer: The MIC was 0.25 µg/mL.

Question: And the MIC [6]?
Answer: Its MIC is over 32 µg/mL.

Question: What about the MIC ([1]; Table 5, S. aureus MRSA ATCC 33591, read-out: MIC) of the same compound?
Answer: Its MIC is over 16 µg/mL.
